Consider 15 compounds from patent US20140303182A1, “PHARMACEUTICALLY ACCEPTABLE SALTS OF QUINOLINONE COMPOUNDS HAVING IMPROVED PHARMACEUTICAL PROPERTIES” (NOVARTIS AG, priority 2003, published 2014).

Structures are written as SMILES. Counter-ions that a name gives are not always drawn. Like-named read-outs stand apart in the source and are kept apart here.

The nature of data set [1]: Aqueous equilibrium solubility and pH at saturation. The following applies: water, 24 hours at 22° C., HPLC, free base equivalent. The format is physicochemical.
Another data set in a line: Crystallinity by XRPD. In kind it is physicochemical. The protocol: XRPD analyses were carried out on a Shimadzu XRD-6000 X-ray powder diffractometer using Cu Kα radiation. The instrument is equipped with a fine focus X-ray tube. The tube voltage and amperage were set to 40 kV and 40 mA, respectively. The divergence and scattering slits were set at 1° and the receiving slit was set at 0.15 mm. Diffracted radiation was detected by a NaI scintillation detector. A theta-two theta continuous scan at 3°/minute (0.4 seconds/0.02° step) from […] was used.

A short description of data set [2]: Chemical stability, solid state (HPLC). To be noted: solid state.
Setting [3] is: 30° C./60% Relative humidity, listed as Sulphate.
Where [4] appears, read: 40° C./70% Relative humidity, listed as Sulphate.

Regarding `CN1CCN(c2ccc3nc(-c4c(N)c5c(F)cccc5[nH]c4=O)[nH]c3c2)CC1` [Maleate, 4-Amino-5-fluoro-3-[6-(4-methylpiperazin-1-yl)-1H-benzimidazol-2-yl]-1H-quinolin-2-one], the Solubility in data set [1] turned out to be 0.866 mg FB/mL.

On to `CN1CCN(c2ccc3nc(-c4c(N)c5c(F)cccc5[nH]c4=O)[nH]c3c2)CC1` [Mono-citrate, 4-Amino-5-fluoro-3-[6-(4-methylpiperazin-1-yl)-1H-benzimidazol-2-yl]-1H-quinolin-2-one], for which the Crystallinity entry in “Crystallinity by XRPD” and in the data set “Crystallinity by XRPD” (listed as citrate) was “crystalline” throughout. In addition, the Solubility is 0.456 mg FB/mL in data set [1] and 27.2 mg FB/mL in data set [1] (listed as Citrate).

As for `CN1CCN(c2ccc3nc(-c4c(N)c5c(F)cccc5[nH]c4=O)[nH]c3c2)CC1` [Bis-mesylate, 4-Amino-5-fluoro-3-[6-(4-methylpiperazin-1-yl)-1H-benzimidazol-2-yl]-1H-quinolin-2-one], the Crystallinity result is “mixture of crystalline” in the data set “Crystallinity by XRPD” and “crystalline” in the data set “Crystallinity by XRPD” (listed as bis-mesylate). In addition, the “Area % at Time = 0” value in data set [2] (30° C./60% Relative humidity) was determined as 99.01 Area %; in data set [2] (40° C./70% Relative humidity), 98.78 Area %. Moreover, the “Area % at Time = 6 weeks” value came out at 98.12 Area % in data set [2] (30° C./60% Relative humidity) and 98.35 Area % in data set [2] (40° C./70% Relative humidity).

For `CN1CCN(c2ccc3nc(-c4c(N)c5c(F)cccc5[nH]c4=O)[nH]c3c2)CC1` [Nitrate, 4-Amino-5-fluoro-3-[6-(4-methylpiperazin-1-yl)-1H-benzimidazol-2-yl]-1H-quinolin-2-one], the Solubility in data set [1] stood at 6.7 mg FB/mL.

For `CN1CCN(c2ccc3nc(-c4c(N)c5c(F)cccc5[nH]c4=O)[nH]c3c2)CC1` [Phosphate, 4-Amino-5-fluoro-3-[6-(4-methylpiperazin-1-yl)-1H-benzimidazol-2-yl]-1H-quinolin-2-one], the Crystallinity entry in the data set “Crystallinity by XRPD” was “mixture of crystalline”; in “Crystallinity by XRPD” (listed as phosphate) it was “mixture of crystalline and amorphous material”. Further, the Solubility in data set [1] amounted to 13.8 mg FB/mL. For the same compound, the “Area % at Time = 0” value in data set [2] (30° C./60% Relative humidity) is 98.47 Area %; in data set [2] (40° C./70% Relative humidity), 98.84 Area %. Further, the entries for the “Area % at Time = 6 weeks” value in data set [2] (30° C./60% Relative humidity) and in data set [2] (40° C./70% Relative humidity) were 99.28 Area % and 98.86 Area %, respectively.

`CN1CCN(c2ccc3nc(-c4c(N)c5c(F)cccc5[nH]c4=O)[nH]c3c2)CC1` [Mono-acetate, 4-Amino-5-fluoro-3-[6-(4-methylpiperazin-1-yl)-1H-benzimidazol-2-yl]-1H-quinolin-2-one]: the Crystallinity result is reported as “amorphous” in the data set “Crystallinity by XRPD”, “mixture of crystalline” in the data set “Crystallinity by XRPD” (listed as Acetate) and “amorphous” in “Crystallinity by XRPD” (listed as acetate salt). In addition, the Solubility was found to be 84.4 mg FB/mL in data set [1] and 15.4 mg FB/mL in data set [1] (listed as Acetate).

Consider `CN1CCN(c2ccc3nc(-c4c(N)c5c(F)cccc5[nH]c4=O)[nH]c3c2)CC1` [Hemi-malate, 4-Amino-5-fluoro-3-[6-(4-methylpiperazin-1-yl)-1H-benzimidazol-2-yl]-1H-quinolin-2-one], for which, in the data set “Crystallinity by XRPD”, the Crystallinity entry is “crystalline”. In addition, in data set [1], the Solubility stood at 6.39 mg FB/mL.

Regarding `CN1CCN(c2ccc3nc(-c4c(N)c5c(F)cccc5[nH]c4=O)[nH]c3c2)CC1` [Mono-tartrate, 4-Amino-5-fluoro-3-[6-(4-methylpiperazin-1-yl)-1H-benzimidazol-2-yl]-1H-quinolin-2-one], the Crystallinity entry in the data set “Crystallinity by XRPD” is “crystalline”; in the data set “Crystallinity by XRPD” (listed as L-Tartrate), “mixture of crystalline”; in “Crystallinity by XRPD” (listed as L-tartrate), “mixture of crystalline and amorphous material”. In addition, in data set [1] (listed as L-Tartrate), the Solubility stood at 103.4 mg FB/mL.

Turning to `CN1CCN(c2ccc3nc(-c4c(N)c5c(F)cccc5[nH]c4=O)[nH]c3c2)CC1` [Bis-Acetate, 4-Amino-5-fluoro-3-[6-(4-methylpiperazin-1-yl)-1H-benzimidazol-2-yl]-1H-quinolin-2-one], the Crystallinity result in the data set “Crystallinity by XRPD” is “mixture of crystalline”; in “Crystallinity by XRPD” (listed as bis-acetate), “mixture of crystalline and amorphous material”. Further, the Solubility in data set [1] is recorded as 31.9 mg FB/mL.

For the compound `CN1CCN(c2ccc3nc(-c4c(N)c5c(F)cccc5[nH]c4=O)[nH]c3c2)CC1` [Sulfate, 4-Amino-5-fluoro-3-[6-(4-methylpiperazin-1-yl)-1H-benzimidazol-2-yl]-1H-quinolin-2-one], the Crystallinity result is “mixture of crystalline” in the data set “Crystallinity by XRPD”; “mixture of crystalline and amorphous material” in the data set “Crystallinity by XRPD” (listed as sulfate). In addition, the Solubility in data set [1] amounted to 19.7 mg FB/mL. Besides, the “Area % at Time = 0” value is recorded as 98.75 Area % in data set [2] (setting [3]) and 98.96 Area % in data set [2] (setting [4]). Also, the “Area % at Time = 6 weeks” value came to 99.39 Area % in data set [2] (setting [3]) and 98.9 Area % in data set [2] (setting [4]).

Turning to `CN1CCN(c2ccc3nc(-c4c(N)c5c(F)cccc5[nH]c4=O)[nH]c3c2)CC1` [BisHCl, 4-Amino-5-fluoro-3-[6-(4-methylpiperazin-1-yl)-1H-benzimidazol-2-yl]-1H-quinolin-2-one], the Solubility in data set [1] came out at 42 mg FB/mL.

For the compound `CN1CCN(c2ccc3nc(-c4c(N)c5c(F)cccc5[nH]c4=O)[nH]c3c2)CC1` [Bis-Lactate, 4-Amino-5-fluoro-3-[6-(4-methylpiperazin-1-yl)-1H-benzimidazol-2-yl]-1H-quinolin-2-one], the Crystallinity entry in the data set “Crystallinity by XRPD” was “mixture of crystalline”; in the data set “Crystallinity by XRPD” (listed as bis-lactate), “mixture of crystalline and amorphous material”. The Solubility in data set [1] was found to be 304 mg FB/mL. In addition, the “Area % at Time = 0” value in data set [2] (30° C./60% Relative humidity) is on record as 98.71 Area %; in data set [2] (40° C./70% Relative humidity) it was 98.99 Area %. The “Area % at Time = 6 weeks” value in data set [2] (30° C./60% Relative humidity) was found to be 98.64 Area %; in data set [2] (40° C./70% Relative humidity), 97.92 Area %.

Consider `CN1CCN(c2ccc3nc(-c4c(N)c5c(F)cccc5[nH]c4=O)[nH]c3c2)CC1` [Hydrochloride, 4-Amino-5-fluoro-3-[6-(4-methylpiperazin-1-yl)-1H-benzimidazol-2-yl]-1H-quinolin-2-one], for which, in data set [1], the Solubility amounted to 26.3 mg FB/mL.

With `CN1CCN(c2ccc3nc(-c4c(N)c5c(F)cccc5[nH]c4=O)[nH]c3c2)CC1` [Bis-Glycinate, 4-Amino-5-fluoro-3-[6-(4-methylpiperazin-1-yl)-1H-benzimidazol-2-yl]-1H-quinolin-2-one], the Solubility in data set [1] was 0.11 mg FB/mL.

As for `CN1CCN(c2ccc3nc(-c4c(N)c5c(F)cccc5[nH]c4=O)[nH]c3c2)CC1` [Glycinate, 4-Amino-5-fluoro-3-[6-(4-methylpiperazin-1-yl)-1H-benzimidazol-2-yl]-1H-quinolin-2-one], in data set [1], the Solubility was determined as 0.0638 mg FB/mL.
